# *1 amine or outer side, *2 acyl side, *3 side chain or, on linkers, in order; H or OH if unused. Where a SMILES comes first, the peptide text is derived from it. Bridges are numbered along the chain shown (N, C = ends). [ ]: non-standard residue; d: D form. X2 = O=C([C@H](Cc1cc(F)c(F)cc1F)N[*:1])[*:2]; Ala(cHept) = N[C@@H](CC1CCCCCC1)C(=O)O; Phe(4-F) = N[C@@H](Cc1ccc(F)cc1)C(=O)O; Ala(cPr) = N[C@@H](CC1CC1)C(=O)O; hCha = N[C@@H](CCC1CCCCC1)C(=O)O; tBuAla = CC(C)(C)C[C@H](N)C(=O)O; AllylGly = C=CC[C@H](N)C(=O)O; Cba = N[C@@H](CC1CCC1)C(=O)O; Nle = CCCC[C@H](N)C(=O)O; Orn = NCCC[C@H](N)C(=O)O; Dab = NCC[C@H](N)C(=O)O; Nva = CCC[C@H](N)C(=O)O; Dap = NC[C@H](N)C(=O)O
# Tests used:
# hNTS1 receptor = molecular target: T1, hNTS1 receptor (Homo sapiens, UniProt P30989); test: Competitive radioligand binding assay on the hNTS1 receptor; conditions: displacement of 125I-[Tyr3]-NT, membranes of CHO-K1 cells expressing hNTS1; read-out: IC50 NTS1
# T1 construct: membranes prepared from them
# Protocol: (§1) CHO-K1 (Chinese Hamster Ovary) cells stably expressing hNTS1 and 1321N1 cells stably expressing hNTS2 (ES-690-C and ES-691-C from PerkinElmer, Montréal, Canada) were cultured respectively in Ham's F12 and in DMEM culture media. Culture media were supplemented with 10% FBS, 100 U/mL penicillin, 100 μg/mL streptomycin, 20 mM HEPES, and 0.4 mg/mL G418 at 37° C. in a humidified chamber at 5% CO2.
# (§2) The cells expressing hNTS1 were frozen when they reached 80% confluency. They were scrapped off the dish with 10 mM Tris buffer, 1 mM EDTA, pH 7.5 and centrifuged at 15,000 g for 5 min at 4° C. The pellet was then re-suspended in 1 mL binding buffer. The cells expressing hNTS2 were also frozen when they reached 80% confluency. They were scraped off the dish with PBS, 0.5 mM EDTA, pH 7.5 and sonicated for 5 minutes (pulse 30 s/5 s off, amplitude 40%). They were ultracentrifuged at 100 000 g for 60 minutes at 4° C. The pellet was re-suspended in 1 mL freezing buffer (PBS, glycerol, 0.5 mM EDTA), sonicated for 1 minute (pulse 30 s/5 s off, amplitude 50%) and further diluted in binding buffer. Competitive radioligand binding experiments were performed by incubating 15 μg of cell membranes expressing the hNTS1 receptor with […] of ^125I-[Tyr^3]-NT (2200 Ci/mmol) or 50 μg of cell membranes expressing the hNTS2 receptor with […] of ^125I-[Tyr^3]-NT in binding buffer (50 mM Tris-HCl, pH 7.5, 0.2% BSA) in the presence of increasing concentrations of analogues ranging from 10^−11 to 10^−4 M for 60 min at 25° C. After incubation, the binding reaction mixture was transferred in PEI-coated 96-well filter plates (glass fiber filters GF/B, Millipore, Billerica, MA). Reaction was terminated by filtration, and plates were washed three times with 200 μL ice-cold binding buffer. Glass filters were then counted using a γ-counter (2470 Wizard2, PerkinElmer, Mississauga, Ontario, Canada). Non-specific binding was measured in the presence of 10^−5 M unlabeled NT (8-13) and represented less than 5% of total binding. IC50 values were determined from competition curves as the unlabeled ligand concentration inhibiting 50% of ^125I-[Tyr^3]-NT-specific binding.
# (§3) Competitive radioligand binding data were plotted using the nonlinear regression One-site-Fit Log(IC50) and represented the mean±SEM of at least three independent experiments in triplicates.
# hNTS2 receptor = molecular target: T2, hNTS2 receptor (Homo sapiens, UniProt O95665); test: Competitive radioligand binding assay on the hNTS2 receptor; conditions: for IC50: displacement of 125I-[Tyr3]-NT, membranes of 1321N1 cells expressing hNTS2, read-out: IC50 NTS2 (converted); for Selectivity: ratio IC50 for NTS1 : IC50 for NTS2
# T2 construct: membranes prepared from them
# Protocol: as §1, §2, §3
# T2 sequence (O95665 whole entry): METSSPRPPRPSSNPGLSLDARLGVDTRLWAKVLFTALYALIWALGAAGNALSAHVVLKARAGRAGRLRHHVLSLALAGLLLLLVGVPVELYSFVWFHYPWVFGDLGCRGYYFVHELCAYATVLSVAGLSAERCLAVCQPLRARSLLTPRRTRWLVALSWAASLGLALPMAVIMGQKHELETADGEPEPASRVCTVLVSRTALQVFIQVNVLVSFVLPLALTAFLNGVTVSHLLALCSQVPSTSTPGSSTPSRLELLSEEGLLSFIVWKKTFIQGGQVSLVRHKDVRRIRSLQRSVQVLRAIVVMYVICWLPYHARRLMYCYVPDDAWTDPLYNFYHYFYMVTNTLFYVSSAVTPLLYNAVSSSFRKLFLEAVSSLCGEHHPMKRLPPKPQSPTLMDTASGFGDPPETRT
# T1 sequence (P30989 whole entry): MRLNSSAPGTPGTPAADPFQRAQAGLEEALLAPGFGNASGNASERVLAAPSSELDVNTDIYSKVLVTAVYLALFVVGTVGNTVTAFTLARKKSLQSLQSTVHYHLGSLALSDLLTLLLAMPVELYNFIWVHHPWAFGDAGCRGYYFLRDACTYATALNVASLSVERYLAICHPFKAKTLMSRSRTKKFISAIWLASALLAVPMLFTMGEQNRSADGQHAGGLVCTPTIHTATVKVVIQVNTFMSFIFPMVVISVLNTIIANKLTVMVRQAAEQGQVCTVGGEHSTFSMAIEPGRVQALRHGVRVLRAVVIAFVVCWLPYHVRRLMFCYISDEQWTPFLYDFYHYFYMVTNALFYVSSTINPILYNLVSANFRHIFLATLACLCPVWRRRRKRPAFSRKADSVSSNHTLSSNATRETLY
SMILES,IC50 (hNTS1 receptor) [µM],IC50 (hNTS2 receptor) [µM],Selectivity (hNTS2 receptor)
"CC(C)C[C@H](NC(=O)[C@H](Cc1ccc(O)cc1)NC(=O)[C@@H]1CCCC[C@H](N)C(=O)N[C@@H](CCCCN)C(=O)N[C@@H](CCCCN)C(=O)N1)C(=O)O [compound 47, Dihydro-c[G(All)KKG(All)]YL]",> 100,0.094,>1064
"CC(C)(C)C[C@H](NC(=O)[C@H](Cc1ccc(O)cc1)NC(=O)[C@@H]1CC=CC[C@H](N)C(=O)N[C@@H](CCCCN)C(=O)N[C@@H](CCCCN)C(=O)N1)C(=O)O [compound 49, c[G(All)KKG(All)]YNpg] (H-[AllylGly]KK[AllylGly]Y[tBuAla]-OH; staple 1-4)",> 100,0.0444,>2252
"CC(C)C[C@H](NC(=O)[C@H](Cc1ccc(O)cc1)NC(=O)[C@@H]1CC=CC[C@H](N)C(=O)N[C@@H](CCCCN)C(=O)N[C@@H](CCCN)C(=O)N1)C(=O)O [compound 51, c[G(All)KOrnG(All)]YL] (H-[AllylGly]K[Orn][AllylGly]YL-OH; staple 1-4)",> 100,0.0703,>1422
"CC(C)C[C@H](NC(=O)[C@H](Cc1ccc(O)cc1)NC(=O)[C@@H]1CC=CC[C@H](N)C(=O)N[C@@H](CCCCN)C(=O)N[C@@H](CCN)C(=O)N1)C(=O)O [compound 52, c[G(All)KDabG(All)]YL] (H-[AllylGly]K[Dab][AllylGly]YL-OH; staple 1-4)",> 100,0.244,>409.3
"CC(C)C[C@H](NC(=O)[C@H](Cc1ccc(O)cc1)NC(=O)[C@@H]1CC=CC[C@H](N)C(=O)N[C@@H](CCCCN)C(=O)N[C@@H](CN)C(=O)N1)C(=O)O [compound 53, c[G(All)KDapG(All)]YL] (H-[AllylGly]K[Dap][AllylGly]YL-OH; staple 1-4)",> 100,0.204,>490.9
"CC(C)C[C@H](NC(=O)[C@H](Cc1ccc(O)cc1)NC(=O)[C@@H]1CC=CC[C@H](N)C(=O)N[C@@H](CCCCN)C(=O)NCC(=O)N1)C(=O)O [compound 59, c[G(All)KGG(All)]YL] (H-[AllylGly]KG[AllylGly]YL-OH; staple 1-4)",> 100,2.13,>47
"COc1ccc(C[C@H](NC(=O)[C@H](Cc2ccc(O)cc2)NC(=O)[C@@H]2CC=CC[C@H](N)C(=O)N[C@@H](CCCCN)C(=O)N[C@@H](CCCCN)C(=O)N2)C(=O)O)cc1 [compound 62, c[G(All)KKG(All)]YY(OMe)] (H-[AllylGly]KK[AllylGly]YY(Me)-OH; staple 1-4)",> 100,0.166,>602
"NCCCC[C@@H]1NC(=O)[C@H](CCCCN)NC(=O)[C@@H](N)CC=CC[C@@H](C(=O)N[C@@H](Cc2ccc(O)cc2)C(=O)N[C@@H](CCC2CCCCC2)C(=O)O)NC1=O [compound 64, c[G(All)KKG(All)]YA(homoChA)] (H-[AllylGly]KK[AllylGly]Y[hCha]-OH; staple 1-4)",> 100,0.00774,>12 920
"NCCCC[C@@H]1NC(=O)[C@H](CCCCN)NC(=O)[C@@H](N)CC=CC[C@@H](C(=O)N[C@@H](Cc2ccc(O)cc2)C(=O)N[C@@H](CC2CC2)C(=O)O)NC1=O [compound 65, c[G(All)KKG(All)]YA(cyclopropyl)] (H-[AllylGly]KK[AllylGly]Y[Ala(cPr)]-OH; staple 1-4)",> 100,0.312,>321
"NCCCC[C@@H]1NC(=O)[C@H](CCCCN)NC(=O)[C@@H](N)CC=CC[C@@H](C(=O)N[C@@H](Cc2ccc(O)cc2)C(=O)N[C@@H](CC2CCC2)C(=O)O)NC1=O [compound 66, c[G(All)KKG(All)]YA(cyclobutyl)] (H-[AllylGly]KK[AllylGly]Y[Cba]-OH; staple 1-4)",> 100,0.0272,>3682
"NCCCC[C@@H]1NC(=O)[C@H](CCCCN)NC(=O)[C@@H](N)CC=CC[C@@H](C(=O)N[C@@H](Cc2ccc(O)cc2)C(=O)N[C@@H](CC2CCCCCC2)C(=O)O)NC1=O [compound 68, c[G(All)KKG(All)]YA(cycloheptyl)] (H-[AllylGly]KK[AllylGly]Y[Ala(cHept)]-OH; staple 1-4)",> 100,0.00685,>14 600
"COc1ccc(C[C@H](NC(=O)[C@@H]2CC=CC[C@H](N)C(=O)N[C@@H](CCCCN)C(=O)N[C@@H](CCCCN)C(=O)N2)C(=O)N[C@@H](CC(C)C)C(=O)O)cc1 [compound 75, c[G(All)KKG(All)]Y(OMe)L] (H-[AllylGly]KK[AllylGly]Y(Me)L-OH; staple 1-4)",> 100,0.0863,>1159
"CC(C)C[C@H](NC(=O)[C@H](Cc1ccc(F)cc1)NC(=O)[C@@H]1CC=CC[C@H](N)C(=O)N[C@@H](CCCCN)C(=O)N[C@@H](CCCCN)C(=O)N1)C(=O)O [compound 77, c[G(All)KKG(All)]F(4-fluoro)L] (H-[AllylGly]KK[AllylGly][Phe(4-F)]L-OH; staple 1-4)",> 100,0.0956,>1046

# Now from value to molecule:
IC50 (hNTS1 receptor) [µM],IC50 (hNTS2 receptor) [µM],Selectivity (hNTS2 receptor),SMILES
> 100,10.1,>10,"CC(C)C[C@H](NC(=O)[C@@H](CCCCN)NC(=O)[C@@H]1CC=CC[C@H](N)C(=O)N[C@@H](CCCCN)C(=O)N[C@@H](CCCCN)C(=O)N1)C(=O)O [compound 48, c[G(All)KKG(All)]K*L] (H-[AllylGly]KK[AllylGly][dK]L-OH; staple 1-4)"
> 100,0.321,>311.9,"CC(C)C[C@H](NC(=O)[C@H](Cc1ccc(O)cc1)NC(=O)[C@@H]1CC=CC[C@H](N)C(=O)N[C@@H](CCCCN)C(=O)N[C@H](CCCCN)C(=O)N1)C(=O)O [compound 54, c[G(All)KK*G(All)]YL] (H-[AllylGly]K[dK][AllylGly]YL-OH; staple 1-4)"
> 100,0.57,>175,"CC(C)C[C@H](NC(=O)[C@H](Cc1ccc(O)cc1)NC(=O)[C@@H]1CC=CC[C@H](N)C(=O)N[C@@H](CCCCN)C(=O)N[C@@H](Cc2c[nH]cn2)C(=O)N1)C(=O)O [compound 55, c[G(All)KHG(All)]YL] (H-[AllylGly]KH[AllylGly]YL-OH; staple 1-4)"
> 100,0.716,>140,"CCCC[C@@H]1NC(=O)[C@H](CCCCN)NC(=O)[C@@H](N)CC=CC[C@@H](C(=O)N[C@@H](Cc2ccc(O)cc2)C(=O)N[C@@H](CC(C)C)C(=O)O)NC1=O [compound 57, c[G(All)KNleG(All)]YL] (H-[AllylGly]K[Nle][AllylGly]YL-OH; staple 1-4)"
> 100,0.729,>137,"CCC[C@@H]1NC(=O)[C@H](CCCCN)NC(=O)[C@@H](N)CC=CC[C@@H](C(=O)N[C@@H](Cc2ccc(O)cc2)C(=O)N[C@@H](CC(C)C)C(=O)O)NC1=O [compound 58, c[G(All)KNvaG(All)]YL] (H-[AllylGly]K[Nva][AllylGly]YL-OH; staple 1-4)"
> 100,12.4,>8.,"CC(C)C[C@H](NC(=O)[C@H](Cc1ccc(O)cc1)NC(=O)[C@@H]1CC=CC[C@H](N)C(=O)N[C@@H](CCCCN)C(=O)N[C@@H](CCC(=O)O)C(=O)N1)C(=O)O [compound 61, c[G(All)KEG(All)]YL] (H-[AllylGly]KE[AllylGly]YL-OH; staple 1-4)"
> 100,0.366,>273,"NCCCC[C@@H]1NC(=O)[C@H](CCCCN)NC(=O)[C@@H](N)CC=CC[C@@H](C(=O)N[C@@H](Cc2ccc(O)cc2)C(=O)N[C@@H](Cc2cc(F)c(F)cc2F)C(=O)O)NC1=O [compound 63, c[G(All)KKG(All)]YF(2,4,5-trifluoro)] (H-[AllylGly]KK[AllylGly]Y[X2]-OH; staple 1-4)"
> 100,0.0851,>1175,"CC(C)C[C@H](NC(=O)[C@H](Cc1ccccc1)NC(=O)[C@@H]1CC=CC[C@H](N)C(=O)N[C@@H](CCCCN)C(=O)N[C@@H](CCCCN)C(=O)N1)C(=O)O [compound 76, c[G(All)KKG(All)FL] (H-[AllylGly]KK[AllylGly]FL-OH; staple 1-4)"

# Reference: patent US12358948B2, “Neurotensinergic agonists and methods of using same preventing or treating pain” (priority 2019, dated 2025)
